Reference: patent publication US10758534B2 (Vertex Pharmaceuticals Incorporated, priority 2014, dated 2020)

biological target: T1, F508del (Homo sapiens, UniProt P13569, DEL508-508); assay: Protocol 2: FRET membrane potential optical assay (VIPR), identification of correction compounds; type: cell-based; details: F508del CFTR modulator activity; compounds of Table 1; read-out: EC30
T1 construct: expressed in transfected cells
How it was run: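 FRET read-out (CC2-DMPE donor, DiSBAC2(3) voltage-sensitive acceptor) of membrane depolarization on VIPR II. Corrector candidates incubated 16 hrs at 37° C. with NIH3T3 cells expressing F508del; temperature correction at 27° C. as positive control; stimulation by 10 μM forskolin, 20 μM genistein, chloride-free gluconate bath.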

T1 sequence (P13569 with tags, fused parts or gaps DEL508-508): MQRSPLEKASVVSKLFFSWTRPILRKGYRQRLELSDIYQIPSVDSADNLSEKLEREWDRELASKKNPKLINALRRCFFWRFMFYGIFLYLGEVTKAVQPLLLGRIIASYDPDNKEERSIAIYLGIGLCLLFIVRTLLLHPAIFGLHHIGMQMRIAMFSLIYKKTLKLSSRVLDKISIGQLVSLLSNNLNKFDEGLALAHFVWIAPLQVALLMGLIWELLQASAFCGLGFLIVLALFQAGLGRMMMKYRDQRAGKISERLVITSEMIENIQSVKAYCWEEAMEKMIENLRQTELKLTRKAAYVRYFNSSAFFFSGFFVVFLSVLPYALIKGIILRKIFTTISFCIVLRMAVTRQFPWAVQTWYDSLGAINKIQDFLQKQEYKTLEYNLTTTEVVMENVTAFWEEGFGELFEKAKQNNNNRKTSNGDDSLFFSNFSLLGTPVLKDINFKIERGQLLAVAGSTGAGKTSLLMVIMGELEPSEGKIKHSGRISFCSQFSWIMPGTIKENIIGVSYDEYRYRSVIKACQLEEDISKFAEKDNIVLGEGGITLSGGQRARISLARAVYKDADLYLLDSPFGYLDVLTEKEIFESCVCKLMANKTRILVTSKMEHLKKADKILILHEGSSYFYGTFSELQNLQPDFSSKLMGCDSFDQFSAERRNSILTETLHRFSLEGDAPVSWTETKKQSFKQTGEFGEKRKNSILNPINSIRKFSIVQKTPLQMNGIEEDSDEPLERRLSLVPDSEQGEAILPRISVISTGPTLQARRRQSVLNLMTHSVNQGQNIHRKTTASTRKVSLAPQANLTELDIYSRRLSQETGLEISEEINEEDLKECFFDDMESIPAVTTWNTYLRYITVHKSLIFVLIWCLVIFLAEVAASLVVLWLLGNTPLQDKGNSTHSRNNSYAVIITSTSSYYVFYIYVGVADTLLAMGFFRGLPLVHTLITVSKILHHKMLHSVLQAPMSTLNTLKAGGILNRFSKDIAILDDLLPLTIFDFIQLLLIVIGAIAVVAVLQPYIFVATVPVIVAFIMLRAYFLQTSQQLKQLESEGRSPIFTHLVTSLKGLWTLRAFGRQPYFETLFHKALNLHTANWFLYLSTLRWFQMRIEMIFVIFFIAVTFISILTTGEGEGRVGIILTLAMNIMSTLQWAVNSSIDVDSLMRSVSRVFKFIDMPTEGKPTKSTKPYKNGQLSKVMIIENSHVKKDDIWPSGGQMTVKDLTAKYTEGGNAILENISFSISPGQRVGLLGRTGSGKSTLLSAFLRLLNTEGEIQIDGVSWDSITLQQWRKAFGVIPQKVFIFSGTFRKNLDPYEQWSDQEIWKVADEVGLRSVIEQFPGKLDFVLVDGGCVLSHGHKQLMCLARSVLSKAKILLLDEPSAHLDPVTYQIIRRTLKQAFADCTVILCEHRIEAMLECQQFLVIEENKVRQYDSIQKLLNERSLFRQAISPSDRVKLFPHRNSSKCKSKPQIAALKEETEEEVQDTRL

SMILES	EC30
CC(C)Oc1cccc(-c2ccc(C(=O)NS(=O)(=O)N3CC[C@H](N)C3)c(N3C[C@@H](C)CC3(C)C)n2)c1 [Compound 2156, N-[(3S)-3-aminopyrrolidin-1-yl]sulfonyl-6-(3-isopropoxyphenyl)-2-[(4S)-2,2,4-trimethylpyrrolidin-1-yl]pyridine-3-carboxamide]	< 3000 nM
CC1CN(c2ncccc2C(=O)NS(=O)(=O)c2cccc(N3CC[C@H](F)C3)n2)C(C)(C)C1 (stereo partly drawn) [Compound 2393, N—[[6-[(3S)-3-fluoropyrrolidin-1-yl]-2-pyridyl]sulfonyl]-2-(2,2,4-trimethylpyrrolidin-1-yl)pyridine-3-carboxamide]	3000 to 10000 nM
CC1CN(c2ncccc2C(=O)NS(=O)(=O)c2cccc(OCC(C)(C)C)n2)C(C)(C)C1 (stereo not shown) [Compound 2412, N—[[6-(2,2-dimethylpropoxy)-2-pyridyl]sulfonyl]-2-(2,2,4-trimethylpyrrolidin-1-yl)pyridine-3-carboxamide]	< 3000 nM
CC1CN(c2ncccc2C(=O)NS(=O)(=O)c2cccc(N3CCC(CCN(C)C)CC3)n2)C(C)(C)C1 (stereo not shown) [Compound 2383, N—[[6-[4-(2-dimethylaminoethyl)-1-piperidyl]-2-pyridyl]sulfonyl]-2-(2,2,4-trimethylpyrrolidin-1-yl)pyridine-3-carboxamide]	3000 to 10000 nM
Cc1ccc(-c2ccc(C(=O)NS(=O)(=O)c3cccc(N)n3)c(N3CC(C)CC3(C)C)n2)nc1NCC(C)C (stereo not shown) [Compound 2362, N-[(6-amino-2-pyridyl)sulfonyl]-6-[6-(isobutylamino)-5-methyl-2-pyridyl]-2-(2,2,4-trimethylpyrrolidin-1-yl)pyridine-3-carboxamide]	< 3000 nM
CC(C)COc1ccccc1-c1ccc(C(=O)NS(=O)(=O)c2cccnc2N)c(N2C[C@@H](C)CC2(C)C)n1 [Compound 2448, N-[(2-amino-3-pyridyl)sulfonyl]-6-(2-isobutoxyphenyl)-2-[(4S)-2,2,4-trimethylpyrrolidin-1-yl]pyridine-3-carboxamide]	< 3000 nM
C[C@@H]1CN(c2ncccc2C(=O)NS(=O)(=O)N2CC[C@@H](NCc3ccc(F)c(OC(F)(F)F)c3)C2)C(C)(C)C1 [Compound 2680]	3000 to 10000 nM
CCOCCOCCN(C)c1ncc(-c2ccc(C(=O)NS(=O)(=O)c3cccc(N)n3)c(N3C[C@@H](C)CC3(C)C)n2)cc1C [Compound 2681]	< 3000 nM
Cc1ccc(-c2ccc(C(=O)NS(=O)(=O)N3CC[C@H](N)C3)c(N3C[C@@H](C)CC3(C)C)n2)cc1C [Compound 2605, N-[(3S)-3-aminopyrrolidin-1-yl]sulfonyl-6-(3,4-dimethylphenyl)-2-[(4S)-2,2,4-trimethylpyrrolidin-1-yl]pyridine-3-carboxamide]	3000 to 10000 nM
COc1cc(Nc2cccc(S(=O)(=O)NC(=O)c3cccnc3N3CC(C)CC3(C)C)n2)cc(OC)c1 (stereo not shown) [Compound 2357, N—[[6-(3,5-dimethoxyanilino)-2-pyridyl]sulfonyl]-2-(2,2,4-trimethylpyrrolidin-1-yl)pyridine-3-carboxamide]	< 3000 nM
COCCCNc1cccc(S(=O)(=O)NC(=O)c2cccnc2N2CC(C)CC2(C)C)n1 (stereo not shown) [Compound 2135, N—[[6-(3-methoxypropylamino)-2-pyridyl]sulfonyl]-2-(2,2,4-trimethylpyrrolidin-1-yl)pyridine-3-carboxamide]	3000 to 10000 nM
Cc1cc(-c2ccc(C(=O)NS(=O)(=O)c3cccc(N)n3)c(N3C[C@@H](C)CC3(C)C)n2)cc(OC(C)C)n1 [Compound 2306, N-[(6-amino-2-pyridyl)sulfonyl]-6-(2-isopropoxy-6-methyl-4-pyridyl)-2-[(4S)-2,2,4-trimethylpyrrolidin-1-yl]pyridine-3-carboxamide]	< 3000 nM
C[C@@H]1CN(c2nc(-c3cccc(C(F)(F)F)c3)ccc2C(=O)NS(=O)(=O)c2ccc[nH]c2=O)C(C)(C)C1 [Compound 2144, N-[(2-oxo-1H-pyridin-3-yl)sulfonyl]-6-[3-(trifluoromethyl)phenyl]-2-[(4S)-2,2,4-trimethylpyrrolidin-1-yl]pyridine-3-carboxamide]	< 3000 nM
C[C@@H]1CN(c2nc(-c3cccc(F)c3O)ccc2C(=O)NS(=O)(=O)c2cccnc2N)C(C)(C)C1 [Compound 2446, N-[(2-amino-3-pyridyl)sulfonyl]-6-(3-fluoro-2-hydroxy-phenyl)-2-[(4S)-2,2,4-trimethylpyrrolidin-1-yl]pyridine-3-carboxamide]	< 3000 nM

same assay, conditions: Table 3; compounds of Table 1 as modulators of CFTR activity; protocol not stated

SMILES	EC30
COc1cccc(S(=O)(=O)NC(=O)C2c3ccccc3CN2Cc2c(C)cc(C)cc2C)c1 (stereo not shown) [Compound 16, N-(3-methoxyphenyl)sulfonyl-2-[(2,4,6-trimethylphenyl)methyl]isoindoline-1-carboxamide]	+++ (“+++” means <3 uM)
CC(C)Oc1ccc(-c2ccc(C(=O)NS(=O)(=O)c3cccc(N)n3)c(N3CCC(C)C3(C)C)n2)cn1 (stereo not shown) [Compound 464, N-[(6-amino-2-pyridyl)sulfonyl]-6-(6-isopropoxy-3-pyridyl)-2-(2,2,3-trimethylpyrrolidin-1-yl)pyridine-3-carboxamide]	+++ (“+++” means <3 uM)
C[C@@H]1CC[C@H](C)N1c1nc(-c2cc(F)cc(OCC3CC3)c2)ccc1C(=O)NS(=O)(=O)c1ccc[nH]c1=O [Compound 541, 6-[3-(cyclopropylmethoxy)-5-fluoro-phenyl]-2-[(2S,5R)-2,5-dimethylpyrrolidin-1-yl]-N-[(2-oxo-1H-pyridin-3-yl)sulfonyl]pyridine-3-carboxamide]	+++ (“+++” means <3 uM)
Cc1cc(C)c(Oc2nc(C(C)(C)C)ccc2C(=O)NS(=O)(=O)c2ccccc2N)c(C)c1 [Compound 322, N-(2-aminophenyl)sulfonyl-6-tert-butyl-2-(2,4,6-trimethylphenoxy)pyridine-3-carboxamide]	+++ (“+++” means <3 uM)
COc1cccc2c1cc(C(=O)NS(=O)(=O)c1cccc(N)c1)n2Cc1c(C)cccc1C [Compound 168, N-(3-aminophenyl)sulfonyl-1-[(2,6-dimethylphenyl)methyl]-4-methoxy-indole-2-carboxamide]	+++ (“+++” means <3 uM)
Cc1cc(C)c(Cn2c(C(=O)NS(=O)(=O)c3cc(N)ccn3)cc3ccccc32)c(C)c1 [Compound 23, N-[(4-amino-2-pyridyl)sulfonyl]-1-[(2,4,6-trimethylphenyl)methyl]indole-2-carboxamide]	++ (“++” means between 3 uM and 10 uM)
CC1CCN(c2nc(-c3cc(F)cc(OC(C)C)c3)ccc2C(=O)NS(=O)(=O)c2cccc(N)n2)CC1 [Compound 600, N-[(6-amino-2-pyridyl)sulfonyl]-6-(3-fluoro-5-isopropoxy-phenyl)-2-(4-methyl-1-piperidyl)pyridine-3-carboxamide]	+++ (“+++” means <3 uM)
CC(C)COc1cc(F)cc(-c2ccc(C(=O)NS(=O)(=O)c3cccc(N)n3)c(N3CCCC3C)n2)c1 (stereo not shown) [Compound 479, N-[(6-amino-2-pyridyl)sulfonyl]-6-(3-fluoro-5-isobutoxy-phenyl)-2-(2-methylpyrrolidin-1-yl)pyridine-3-carboxamide]	+++ (“+++” means <3 uM)
COc1cccc(S(=O)(=O)NC(=O)c2ccc(C(C)(C)C)nc2-c2ccc(C)cc2)n1 [Compound 75, 6-tert-butyl-N-[(6-methoxy-2-pyridyl)sulfonyl]-2-(p-tolyl)pyridine-3-carboxamide]	++ (“++” means between 3 uM and 10 uM)
CC1CC(C)CN(c2nc(C(C)(C)C)ccc2C(=O)NS(=O)(=O)c2cccc(N)n2)C1 (stereo not shown) [Compound 617, N-[(6-amino-2-pyridyl)sulfonyl]-6-tert-butyl-2-(3,5-dimethyl-1-piperidyl)pyridine-3-carboxamide]	+++ (“+++” means <3 uM)
CC(C)Oc1ccc(-c2ccc(C(=O)NS(=O)(=O)c3cccc(N)n3)c(NC(C)c3ccccc3)n2)cn1 (stereo not shown) [Compound 766, N-[(6-amino-2-pyridyl)sulfonyl]-6-(6-isopropoxy-3-pyridyl)-2-(1-phenylethylamino)pyridine-3-carboxamide]	++ (“++” means between 3 uM and 10 uM)
COc1ccc(-c2ccc(C(=O)NS(=O)(=O)c3cccc(N)n3)c(Oc3c(C)cc(C)cc3C)n2)cc1 [Compound 17, N-[(6-amino-2-pyridyl)sulfonyl]-6-(4-methoxyphenyl)-2-(2,4,6-trimethylphenoxy)pyridine-3-carboxamide]	+++ (“+++” means <3 uM)
CC(C)COc1cc(F)cc(-c2ccc(C(=O)NS(=O)(=O)c3ccn[nH]3)c(N3CCC[C@H]3c3ccccc3)n2)c1 [Compound 716, 6-(3-fluoro-5-isobutoxy-phenyl)-2-[(2S)-2-phenylpyrrolidin-1-yl]-N-(1H-pyrazol-5-ylsulfonyl)pyridine-3-carboxamide]	+++ (“+++” means <3 uM)
Cc1cc(C)c(Cn2nc(C(C)(C)C)cc2C(=O)NS(=O)(=O)c2cccc3ncccc23)c(C)c1 [Compound 352, 5-tert-butyl-N-(5-quinolylsulfonyl)-2-[(2,4,6-trimethylphenyl)methyl]pyrazole-3-carboxamide]	+++ (“+++” means <3 uM)
Cc1cccc(-c2ccc(C(=O)NS(=O)(=O)c3cccc(N)n3)c(Oc3c(C)cc(C)cc3C)n2)c1 [Compound 672, N-[(6-amino-2-pyridyl)sulfonyl]-6-(m-tolyl)-2-(2,4,6-trimethylphenoxy)pyridine-3-carboxamide]	+++ (“+++” means <3 uM)
CC(C)COc1cc(F)cc(-c2ccc(C(=O)NS(=O)(=O)c3cccc(N)n3)c(N3CC(C)CC3C)n2)c1 (stereo not shown) [Compound 587, N-[(6-amino-2-pyridyl)sulfonyl]-2-(2,4-dimethylpyrrolidin-1-yl)-6-(3-fluoro-5-isobutoxy-phenyl)pyridine-3-carboxamide]	+++ (“+++” means <3 uM)
Cc1cc(C)c(Cc2ccc(C(C)(C)C)nc2C(=O)NS(=O)(=O)c2cccc(N)c2)c(C)c1 [Compound 313, N-(3-aminophenyl)sulfonyl-6-tert-butyl-3-[(2,4,6-trimethylphenyl)methyl]pyridine-2-carboxamide]	+++ (“+++” means <3 uM)
